These are literature values, as cited in patent EP1649859A1, “Pharmaceutical compositions comprising at least one poorly diffusible anticancer drug and a olidodeoxynucleotide immunestimulant” (Institut Gustave Roussy, priority 2004, dated 2006).

For this data set the following is noted: bléomycine seule à des doses sub-thérapeutiques.

Take bléomycine: the activité antitumorale propre result was “ne possèdent pas d'activité antitumorale propre”.
